Source: the NIST ThermoML archive (doi:10.1016/j.fluid.2014.09.014)

Assay: refractive index (other wavelength) (dimensionless); xn = mol fraction of the nth substance listed
Details: 101 kPa, Liquid, Standard Abbe refractometry

CC(C)OC(C)C [diisopropyl ether] + CC(C)O
Details	refractive index
293.5 K, Wavelength=632.8 nm, x1 = 0.8864	1.36832
293.5 K, Wavelength=632.8 nm, x1 = 0.8903	1.36795
293.5 K, Wavelength=632.8 nm, x1 = 0.9113	1.36771
293.5 K, Wavelength=632.8 nm, x1 = 0.9547	1.36732
293.5 K, Wavelength=632.8 nm, x1 = 0.973	1.36703
293.5 K, Wavelength=632.8 nm, x1 = 0.9771	1.36706
293.5 K, Wavelength=632.8 nm, x1 = 1	1.36674
293.5 K, Wavelength=644 nm, x1 = 0.0277	1.37541
293.5 K, Wavelength=644 nm, x1 = 0.0507	1.37531
293.5 K, Wavelength=644 nm, x1 = 0.051	1.37539
293.5 K, Wavelength=644 nm, x1 = 0.0717	1.37515
293.5 K, Wavelength=644 nm, x1 = 0.1528	1.37461
293.5 K, Wavelength=644 nm, x1 = 0.1553	1.37461
293.5 K, Wavelength=644 nm, x1 = 0.1938	1.3743
293.5 K, Wavelength=644 nm, x1 = 0.2029	1.37411
293.5 K, Wavelength=644 nm, x1 = 0.245	1.37374
293.5 K, Wavelength=644 nm, x1 = 0.297	1.37347
293.5 K, Wavelength=644 nm, x1 = 0.2973	1.3737
293.5 K, Wavelength=644 nm, x1 = 0.3068	1.37314
293.5 K, Wavelength=644 nm, x1 = 0.398	1.37206
293.5 K, Wavelength=644 nm, x1 = 0.4609	1.3715
293.5 K, Wavelength=644 nm, x1 = 0.5434	1.37078
293.5 K, Wavelength=644 nm, x1 = 0.6032	1.37023
293.5 K, Wavelength=644 nm, x1 = 0.6371	1.36988
293.5 K, Wavelength=644 nm, x1 = 0.701	1.36928
293.5 K, Wavelength=644 nm, x1 = 0.754	1.36891
293.5 K, Wavelength=644 nm, x1 = 0.791	1.36857
293.5 K, Wavelength=644 nm, x1 = 0.8296	1.36824
293.5 K, Wavelength=644 nm, x1 = 0.8864	1.36802
293.5 K, Wavelength=644 nm, x1 = 0.8903	1.36765
293.5 K, Wavelength=644 nm, x1 = 0.9113	1.36741
293.5 K, Wavelength=644 nm, x1 = 0.9547	1.36702
293.5 K, Wavelength=644 nm, x1 = 0.973	1.36673
293.5 K, Wavelength=644 nm, x1 = 0.9771	1.36675
293.5 K, Wavelength=644 nm, x1 = 1	1.36644
293.5 K, Wavelength=706.5 nm, x1 = 0.0277	1.37391
293.5 K, Wavelength=706.5 nm, x1 = 0.0507	1.37381
293.5 K, Wavelength=706.5 nm, x1 = 0.051	1.37389
293.5 K, Wavelength=706.5 nm, x1 = 0.0717	1.37366
293.5 K, Wavelength=706.5 nm, x1 = 0.1528	1.37313
293.5 K, Wavelength=706.5 nm, x1 = 0.1553	1.37313
293.5 K, Wavelength=706.5 nm, x1 = 0.1938	1.37281
293.5 K, Wavelength=706.5 nm, x1 = 0.2029	1.37263
293.5 K, Wavelength=706.5 nm, x1 = 0.245	1.37227
293.5 K, Wavelength=706.5 nm, x1 = 0.297	1.372
293.5 K, Wavelength=706.5 nm, x1 = 0.2973	1.37222
293.5 K, Wavelength=706.5 nm, x1 = 0.3068	1.37167
293.5 K, Wavelength=706.5 nm, x1 = 0.398	1.37061
293.5 K, Wavelength=706.5 nm, x1 = 0.4609	1.37005
293.5 K, Wavelength=706.5 nm, x1 = 0.5434	1.36934
293.5 K, Wavelength=706.5 nm, x1 = 0.6032	1.36879
293.5 K, Wavelength=706.5 nm, x1 = 0.6371	1.36844
293.5 K, Wavelength=706.5 nm, x1 = 0.701	1.36784
293.5 K, Wavelength=706.5 nm, x1 = 0.754	1.36746
293.5 K, Wavelength=706.5 nm, x1 = 0.791	1.36713
293.5 K, Wavelength=706.5 nm, x1 = 0.8296	1.3668
293.5 K, Wavelength=706.5 nm, x1 = 0.8864	1.36658
293.5 K, Wavelength=706.5 nm, x1 = 0.8903	1.3662
293.5 K, Wavelength=706.5 nm, x1 = 0.9113	1.36598
293.5 K, Wavelength=706.5 nm, x1 = 0.9547	1.36559
293.5 K, Wavelength=706.5 nm, x1 = 0.973	1.36529
293.5 K, Wavelength=706.5 nm, x1 = 0.9771	1.36532
293.5 K, Wavelength=706.5 nm, x1 = 1	1.36501
298.15 K, Wavelength=404.7 nm, x1 = 0.0277	1.38582
298.15 K, Wavelength=404.7 nm, x1 = 0.0507	1.38573
298.15 K, Wavelength=404.7 nm, x1 = 0.051	1.38574
298.15 K, Wavelength=404.7 nm, x1 = 0.0717	1.38551
298.15 K, Wavelength=404.7 nm, x1 = 0.1528	1.38491
298.15 K, Wavelength=404.7 nm, x1 = 0.1553	1.38491
298.15 K, Wavelength=404.7 nm, x1 = 0.1938	1.38463
298.15 K, Wavelength=404.7 nm, x1 = 0.2029	1.38436
298.15 K, Wavelength=404.7 nm, x1 = 0.245	1.38392
298.15 K, Wavelength=404.7 nm, x1 = 0.297	1.38349
298.15 K, Wavelength=404.7 nm, x1 = 0.2973	1.38372
298.15 K, Wavelength=404.7 nm, x1 = 0.3068	1.38326
298.15 K, Wavelength=404.7 nm, x1 = 0.398	1.38211
298.15 K, Wavelength=404.7 nm, x1 = 0.4609	1.3815
298.15 K, Wavelength=404.7 nm, x1 = 0.5434	1.38067
298.15 K, Wavelength=404.7 nm, x1 = 0.6032	1.3801
298.15 K, Wavelength=404.7 nm, x1 = 0.6371	1.37972
298.15 K, Wavelength=404.7 nm, x1 = 0.701	1.37906
298.15 K, Wavelength=404.7 nm, x1 = 0.754	1.37868
298.15 K, Wavelength=404.7 nm, x1 = 0.791	1.3783
298.15 K, Wavelength=404.7 nm, x1 = 0.8296	1.37799
298.15 K, Wavelength=404.7 nm, x1 = 0.8864	1.37775
298.15 K, Wavelength=404.7 nm, x1 = 0.8903	1.37734
298.15 K, Wavelength=404.7 nm, x1 = 0.9113	1.37711
298.15 K, Wavelength=404.7 nm, x1 = 0.9547	1.37676
298.15 K, Wavelength=404.7 nm, x1 = 0.973	1.37634
298.15 K, Wavelength=404.7 nm, x1 = 0.9771	1.37629
298.15 K, Wavelength=404.7 nm, x1 = 1	1.37607
298.15 K, Wavelength=435.8 nm, x1 = 0.0277	1.38277
298.15 K, Wavelength=435.8 nm, x1 = 0.0507	1.38268
298.15 K, Wavelength=435.8 nm, x1 = 0.051	1.38276
